This passage reports Activity, viability and IC50 results from ChEMBL document CHEMBL4680348, “1,2,4-Thiadiazole acyclic nucleoside phosphonates as inhibitors of cysteine dependent enzymes cathepsin K and GSK-3β” (Bioorg Med Chem, 2021).

The target of data set [1] is T1, Cathepsin K (Homo sapiens) (UniProt P43235).
T1 sequence (whole entry): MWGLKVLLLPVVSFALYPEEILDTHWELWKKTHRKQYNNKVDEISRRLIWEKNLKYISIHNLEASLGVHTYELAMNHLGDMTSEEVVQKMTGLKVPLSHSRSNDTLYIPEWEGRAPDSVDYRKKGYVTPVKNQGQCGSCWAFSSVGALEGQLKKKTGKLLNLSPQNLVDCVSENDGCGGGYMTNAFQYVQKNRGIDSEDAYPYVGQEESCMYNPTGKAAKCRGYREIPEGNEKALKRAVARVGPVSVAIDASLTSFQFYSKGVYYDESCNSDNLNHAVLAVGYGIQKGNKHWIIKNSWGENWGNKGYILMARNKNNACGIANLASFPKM
Put plainly: Inhibition of recombinant human Cathepsin K expressed in Pichia pastoris X-33 assessed as residual activity at 10 uM using Z-Gly-Pro-Arg-AMC as substrate preincubated for 10 mins followed by substrate addition measured after 30 mins by fluorescence based microplate reader assay. The conditions noted are these: time 40.0 min.

Data set [2] deals with CCRF-CEM. Put plainly: Cytotoxicity against human CCRF-CEM cells assessed as cell viability at 10 uM incubated for 72 hrs by CellTiter-Glo luminescence based assay. Format: functional. The conditions noted are these: read-out: Activity.
The test system of data set [3] is CCRF-CEM. As to the kind of experiment: Cytotoxicity against human CCRF-CEM cells assessed as cell viability at 100 uM incubated for 72 hrs by CellTiter-Glo luminescence based assay. Format: functional. The conditions noted are these: read-out: Activity.
In data set [4] the test system is HL-60. As to the kind of experiment: Cytotoxicity against human HL-60 cells assessed as cell viability at 10 uM incubated for 72 hrs by CellTiter-Glo luminescence based assay. It is filed as functional. The conditions noted are these: read-out: Activity.
Data set [5] deals with HL-60. Put plainly: Cytotoxicity against human HL-60 cells assessed as cell viability at 100 uM incubated for 72 hrs by CellTiter-Glo luminescence based assay. Format: functional. The conditions noted are these: read-out: Activity.
Data set [6] has as its system HeLa S3. Put plainly: Cytotoxicity against human HeLa S3 cells assessed as cell viability at 10 uM incubated for 72 hrs by CellTiter-Glo luminescence based assay. The conditions noted are these: read-out: Activity. It is filed as functional.
Data set [7] concerns HeLa S3. As to the kind of experiment: Cytotoxicity against human HeLa S3 cells assessed as cell viability at 100 uM incubated for 72 hrs by CellTiter-Glo luminescence based assay. Format: functional. The conditions noted are these: read-out: Activity.
The subject of data set [8] is HepG2. Put plainly: Cytotoxicity against human HepG2 cells assessed as cell viability at 10 uM incubated for 72 hrs by CellTiter-Glo luminescence based assay. It is filed as functional. The conditions noted are these: read-out: Activity.
The subject of data set [9] is HepG2. Put plainly: Cytotoxicity against human HepG2 cells assessed as cell viability at 100 uM incubated for 72 hrs by CellTiter-Glo luminescence based assay. It is filed as functional. The conditions noted are these: read-out: Activity.
The test system of data set [10] is SH-SY5Y. Put plainly: Cytotoxicity against human SH-SY5Y cells assessed as cell viability at 10 uM incubated for 72 hrs by CellTiter-Glo luminescence based assay. It is filed as functional. The conditions noted are these: read-out: Activity.
Data set [11] concerns SH-SY5Y. Put plainly: Cytotoxicity against human SH-SY5Y cells assessed as cell viability at 100 uM incubated for 72 hrs by CellTiter-Glo luminescence based assay. Format: functional. The conditions noted are these: read-out: Activity.
Data set [12] can be described thus: Cytotoxicity against human NHDF cells assessed as cell viability at 10 uM incubated for 72 hrs by CellTiter-Glo luminescence based assay. The conditions noted are these: read-out: Activity.
Data set [13] can be described thus: Cytotoxicity against human NHDF cells assessed as cell viability at 100 uM incubated for 72 hrs by CellTiter-Glo luminescence based assay. The conditions noted are these: read-out: Activity.
Data set [14] addresses T2, Cathepsin K (Homo sapiens, UniProt P43235).
T2 sequence (P43235 whole entry): T1 sequence (whole entry)
Put plainly: Inhibition of recombinant human Cathepsin K expressed in Pichia pastoris X-33 using Z-Gly-Pro-Arg-AMC as substrate preincubated for 10 mins followed by substrate addition measured after 30 mins by fluorescence based microplate reader assay.

The target of data set [15] is Glycogen synthase kinase-3 beta (Homo sapiens, UniProt P49841). As to the kind of experiment: Inhibition of human recombinant GSK3beta using GSK3 peptide as substrate preincubated for 15 mins followed by ATP addition and measured after 90 mins by ADP-Glo kinase assay.

Bounds are passed on as bounds.

Glycogen synthase kinase-3 beta, sequence (P49841 whole entry): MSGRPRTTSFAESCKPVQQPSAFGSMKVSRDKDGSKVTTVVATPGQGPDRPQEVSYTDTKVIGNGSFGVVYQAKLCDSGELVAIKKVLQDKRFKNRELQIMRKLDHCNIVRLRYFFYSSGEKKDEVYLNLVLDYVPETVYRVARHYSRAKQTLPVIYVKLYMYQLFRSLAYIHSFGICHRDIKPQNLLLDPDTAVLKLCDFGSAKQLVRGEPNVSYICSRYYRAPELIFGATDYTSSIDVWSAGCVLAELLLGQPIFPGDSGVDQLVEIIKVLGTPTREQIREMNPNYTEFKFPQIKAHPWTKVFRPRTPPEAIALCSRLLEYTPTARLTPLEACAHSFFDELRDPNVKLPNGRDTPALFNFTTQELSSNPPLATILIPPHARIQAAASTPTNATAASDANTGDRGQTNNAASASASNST

For `CCOC(=O)Nc1nc(=O)n(CCOCP(=O)(O)O)s1`, the Activity in [1] came out at 39.1%. The viability at 10 µM in data set [2] worked out at 74%; in data set [4] it was 96%; in data set [6] it was 94%; in data set [8], 98%; in data set [10], 103%. In addition, the viability at 100 µM was determined as 77% in data set [3]; 100% in data set [5]; 96% in [7]; 97% in data set [9]; 105% in data set [11]. Further, in data set [12], the viability at 72 h, 10 µM is 94%. In data set [13], the viability at 72 h, 100 µM is 97%. The IC50 is 10.1 µM in [14] and over 10 µM in data set [15].

For the compound `Nc1nc(=O)[nH]s1`, the Activity in [1] was 16.9%. Besides, the viability at 10 µM in [2] was determined as 120%; in data set [4], 98%; in [6], 100%; in [8], 87%; in data set [10], 99%. Besides, the viability at 100 µM in data set [3] amounted to 4%; in [5] it was 95%; in [7], 87%; in data set [9], 54%; in [11], 56%. In addition, the viability at 72 h, 10 µM in data set [12] came to 101%. The viability at 72 h, 100 µM in data set [13] amounted to 49%. Also, the IC50 in data set [14] is 6.34 µM; in [15] it was over 10 µM.

Consider `O=C(/N=c1\s[nH]c(=O)n1C[C@H](O)COC(c1ccccc1)(c1ccccc1)c1ccccc1)c1ccccc1`, for which the Activity in [1] came to 34.2%. Further, the viability at 10 µM is 81% in [2]; 93% in [4]; 45% in data set [6]; 91% in data set [8]; 96% in data set [10]. The viability at 100 µM came out at 5% in [3]; 9% in data set [5]; 3% in data set [7]; 37% in [9]; 34% in data set [11]. The viability at 72 h, 10 µM in data set [12] was determined as 98%. In addition, in [13], the viability at 72 h, 100 µM is 79%. Also, the IC50 in [14] was 14.9 µM; in data set [15], over 10 µM.

Take `CN(C)/C=N/c1nc(OC[C@H](O)COC(c2ccccc2)(c2ccccc2)c2ccccc2)ns1`: in data set [1], the Activity amounted to 5.3%. Moreover, the viability at 10 µM in data set [2] amounted to 101%; in data set [4] it was 86%; in [6], 91%; in data set [8], 92%; in data set [10], 99%. In addition, the viability at 100 µM in data set [3] was 2%; in data set [5], 1%; in data set [7] it was 2%; in [9] it was 1%; in data set [11], 2%. For the same compound, the viability at 72 h, 10 µM in [12] turned out to be 97%. Further, the viability at 72 h, 100 µM in data set [13] is 1%. In addition, the IC50 in data set [14] is 2.63 µM; in [15], over 10 µM.

As to `CC(C)OP(=O)(COCCOc1nsc(N)n1)OC(C)C`, the Activity in data set [1] came out at 78.3%. Moreover, the viability at 10 µM stood at 114% in data set [2]; 103% in [4]; 97% in data set [6]; 100% in data set [8]; 98% in [10]. Further, the viability at 100 µM worked out at 103% in [3]; 108% in data set [5]; 98% in data set [7]; 99% in [9]; 55% in [11]. For the same compound, the viability at 72 h, 10 µM in data set [12] came to 104%. Further, the viability at 72 h, 100 µM in data set [13] came to 114%. In addition, the IC50 in data set [15] was over 10 µM.

For `CN(C)/C=N/c1nc(=O)n(C[C@H](O)COC(c2ccccc2)(c2ccccc2)c2ccccc2)s1`, the Activity in data set [1] was 28.3%. Further, the viability at 10 µM in data set [2] was 15%; in data set [4], 64%; in data set [6], 80%; in data set [8], 87%; in [10], 67%. Also, the viability at 100 µM in data set [3] amounted to 1%; in data set [5], 2%; in [7] it was 1%; in data set [9], 1%; in data set [11], 3%. Besides, the viability at 72 h, 10 µM in data set [12] was found to be 77%. For the same compound, the viability at 72 h, 100 µM in [13] amounted to 1%. For the same compound, the values for the half-maximal inhibitory concentration (IC50) in [14] and in data set [15] were 10.1 µM and over 10 µM, respectively.

On to `O=C(Nc1nc(=O)n(C[C@@H](CO)OCP(=O)(O)O)s1)c1ccccc1`, for which the Activity in [1] is 92.3%. Besides, the viability at 10 µM in [2] is 72%; in data set [4], 103%; in data set [6], 97%; in data set [8], 101%; in data set [10], 101%. Moreover, the viability at 100 µM in [3] was determined as 61%; in [5] it was 106%; in data set [7], 101%; in [9] it was 100%; in data set [11], 103%. The viability at 72 h, 10 µM in [12] worked out at 105%. Also, the viability at 72 h, 100 µM in [13] is 98%. Moreover, in [15], the IC50 was over 10 µM.

`CC(C)OP(=O)(CO[C@H](CO)Cn1sc(NC(=O)OCC2c3ccccc3-c3ccccc32)nc1=O)OC(C)C`: in [1], the Activity worked out at 34.1%. In addition, the viability at 10 µM in data set [2] stood at 82%; in data set [4] it was 103%; in data set [6], 99%; in [8] it was 102%; in data set [10], 102%. In addition, the viability at 100 µM in data set [3] was determined as 82%; in data set [5] it was 110%; in [7], 100%; in data set [9] it was 92%; in [11], 85%. The viability at 72 h, 10 µM in data set [12] was found to be 98%. Moreover, the viability at 72 h, 100 µM in data set [13] came out at 100%. Further, the IC50 was 9.25 µM in [14] and over 10 µM in [15].

Consider `O=C(Nc1nc(=O)[nH]s1)c1ccccc1`, for which the Activity in data set [1] worked out at 85%. The viability at 10 µM in data set [2] was determined as 102%; in data set [4], 101%; in data set [6] it was 99%; in data set [8] it was 99%; in [10], 103%. Besides, the viability at 100 µM came out at 96% in data set [3]; 110% in data set [5]; 101% in data set [7]; 77% in [9]; 90% in data set [11]. In addition, the viability at 72 h, 10 µM in data set [12] was determined as 104%. In data set [13], the viability at 72 h, 100 µM turned out to be 100%. In data set [15], the IC50 is over 10 µM.

Take `CC(C)OP(=O)(COCCOc1nsc(/N=C/N(C)C)n1)OC(C)C`: the Activity in data set [1] turned out to be 52.9%. The viability at 10 µM in data set [2] came out at 106%; in [4], 97%; in data set [6] it was 101%; in [8] it was 99%; in [10] it was 101%. Besides, the viability at 100 µM in [3] was 93%; in data set [5] it was 98%; in data set [7], 89%; in [9], 90%; in data set [11], 87%. The viability at 72 h, 10 µM in data set [12] came to 101%. The viability at 72 h, 100 µM in data set [13] was determined as 99%. In addition, the IC50 in data set [15] was over 10 µM.
